Measured values taken from patent publication US11278682B2, “Device and method for aerosolized delivery of substance to a natural orifice of the body” (SIPNOSE LTD., priority 2014, dated 2022).
“Also recorded” adds a separate entry of the source.

Legend:
[1] = system: patients; assay: Midazolam pre-medication sedation (BIS EEG monitoring), 3 mg, SipNose vs commercial nasal pump; format: in vivo, human; conditions: for failures in inducing anesthesia: both comparisons pooled (3 mg and 1.4 mg)
Method: A comparison was made of the efficacy of delivery of the anesthetic Midazolam, when used for pre-medication, between an embodiment of the SipNose device of the present invention and a prior-art device, the commercial nasal pump based on positive displacement (as the pump used for Alrin™ delivery) and the MAD Nasal from Wolfe Tory.
Comparison with nasal pump (using 5 mg/ml solution): For a pre-medication procedure with commercial nasal pump (positive displacement pump), in order to achieve the desired dose of 3 mg Midazolam, the delivery device was inserted into a nostril and an aliquot of Midazolam is delivered. The delivery device is then inserted into the opposite nostril and a second aliquot of Midazolam is delivered. This is repeated twice more with a 30 s intervals between each cycle, for a total of six aliquots of Midazolam, three in each nostril. As opposed to that, for a SipNose device delivery, a single dose of 0.6 ml was delivered to one nostril.
In order to determine the efficacy of anesthetization a BIS EEG monitoring was used, where the BIS values for brain activity are calculated from the EEG activity. Awake, unsedated individuals typically have BIS values ≥97. Mildly sedated individuals typically have BIS values in the 80's, moderately sedated individuals typically have BIS values in the 70's, while fully sedated individuals typically have BIS values below about 70; BIS values between about 45 and about 60 are commonly used for general anesthesia during the maintenance phase of an operation.
Two comparisons were made between the commercial device and the present, SipNose, device. In the first, 3 mg of Midazolam was administered and the commercial device was a commercial nasal pump (positive displacement), in the second, 1.4 mg of Midazolam was administered and the commercial device was a MAD applicator.

[2] = system: Sprague-Dawley (SD) rats; assay: Safety and toxicity of intranasal Midazolam via SipNose device; format: in vivo, rat
Method: Safety and possible adverse effects (toxicity) were assessed the safety and toxicity including adverse effects of Midazolam following intranasal administration via SipNose dedicated device to Sprague-Dawley (SD) rats.
A total of 78 SD rats (39 female and 39 male) were utilized. The animals were divided into four groups of 3 or 12 female rats and 3 or 12 male rats. At each of the times 6 hrs, 24 hrs, 7 days, and 14 days, three males and three females were sacrificed.
The test material was a commercially available injectable Midazolam.
The day of dosing was Day 1 and termination days were Day 1 (6 hrs), Day 2 (24 hrs), Day 8 and Day 15.
Each test material or vehicle dose was administrated to three female and three male rats at each of the above times. The administration was performed intranasally (IN) via a SipNose device. The dose volume was 25-125 μl per naris (50-250 μl total per rat). Dosing was performed in an escalating fashion, each increase in dose depending on the outcome of the previous dose. The time between increasing doses was approximately half an hour.
Dosing was performed in a staggered fashion, each increase in dose pending on the outcome of the previous dose. The lag time between the increasing doses was approximately half an hour. The maximum dose was five times the clinical dose in order to determine a maximum tolerated dose.
The test material and vehicle were administered IN once via a SipNose device at a dose volume of 50-250 μl to non-fasting animals.
Animals were observed individually at least once during the first 30 minutes alter dosing and daily thereafter, for a total of 1, 7, or 14 days (according to time of sacrifice for histological observation). All observations were systematically recorded and individual records were maintained for each animal.
Body weight was monitored one day after the animals' arrival, prior to administration of the test material and twice a week thereafter (days 4, 8, 10 and 15) for a total of 5 times.
Clinical signs were observed daily, at least once during the first 30 min after dosing, periodically during the first 24 h, with special attention during the first 4 h, and once daily thereafter.
Animals were sacrificed by carbon dioxide asphyxiation and gross pathology was performed examining the major tissue and organ systems. All animals were subjected to gross necropsy.
The tissue samples from groups 1, 2, 3 and 4 (M+F) were embedded, sectioned and mounted on slides. The tissue sections were stained with Hematoxylin & Eosin (H&E).
Three cross sections of the skull and brain were taken: (1) in the nose from rostral area, (2) behind the incisor teeth and (3) in the caudal area including the olfactory epithelium labyrinth (FIG. 85). The brain was dissected in the olfactory regions, hippocampus, cerebellum and brain stem. The lungs were evaluated in both right and left lobes. The inflammatory status in the tissue samples were evaluated using the following parameters.
• Grade 0: No inflammation • Grade 1: Mild (few inflammatory cells, 10-20 per ×40 high-power field) • Grade 2: moderate (more inflammatory cells, 20-50 per ×40 high-power field), • Grade 3: severe (many inflammatory cells, more than 50 per ×40 high-power field).

[3] = commercial nasal pump, 3 mg Midazolam

Cc1ncc2n1-c1ccc(Cl)cc1C(c1ccccc1F)=NC2 [Midazolam]
Adverse events ([1]; SipNose device, 3 mg Midazolam): 0
Level of minimum BIS ([1]; SipNose device, 3 mg Midazolam): 74.5±9
Mean onset time ([1]; SipNose device, 3 mg Midazolam): 5.9 ± 4.6 min
level of Maximum BIS ([1]; SipNose device, 3 mg Midazolam): 97
sleep score (1 not sleepy, 2 sleepy or calm, 3 sleeping) ([1]; SipNose device, 3 mg Midazolam): 3
Number of Positive Sedations ([1]; SipNose device, 3 mg Midazolam, 8 patients): 8
failures in inducing anesthesia ([1]; SipNose device): no failures in 10 patients
sleep score (1 not sleepy, 2 sleepy or calm, 3 sleeping) ([1]; commercial device (nasal pump), 3 mg Midazolam): less than 2
failures in inducing anesthesia ([1]; commercial devices): 2 failures and one partial failure in 6 patients
Adverse events [1, 3]: 0
Level of minimum BIS [1, 3]: 87.5±5.3
Mean onset time [1, 3]: 6.7 ± 4.6 min
Minimum BIS excluding failure [1, 3]: 85
level of Maximum BIS [1, 3]: 97
Number of Positive Sedations ([1]; commercial nasal pump, 3 mg Midazolam, 4 patients): 3
death of neurons in the brain ([2]; SD rats, Midazolam treated groups): No death of neurons was detected
adverse effects or histopathological findings in examined tissues ([2]; SD rats, both tested doses (clinical dose and five times clinical dose)): no adverse effects or histopathological findings; also recorded: no pathological abnormalities were found
very mild inflammation in most caudal cross section of the nose ([2]; SD rats, seen in saline and Midazolam groups, 12 out of 42 animals): most probably not drug-related
clinical signs ([2]; SD rats, single intranasal dose via SipNose, up to 14 days): No abnormal clinical signs were detected
weight gain vs control group ([2]; female rats, five times the clinical dose, days 10 and 15): statistically significant greater weight gain
body weight increase vs control group ([2]; male rats, clinical dose of Midazolam, at several times): statistically significant greater increase in weight
